Test results reported in PubChem BioAssay AID248 (DTP/NCI, 2004).
Values joined by “and” are separate entries in the source; they are usually repeats but may differ in a detail not shown here. Equal entries are not always repeated. Inconclusive results and toxic doses are left out. Cut-off read from the data, not from the text of the source: active = T/C of 150% or more; inactive = T/C below 125%.

Test system: L1210 leukemia ip in BDF1 mice, survival T/C
Test: NCI In Vivo Anticancer Drug Screen. Data for tumor model L1210 Leukemia (intraperitoneal) in B6D2F1 (BDF1) mice
Details: endpoint: mean survival time, higher = longer survival
Outline: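 Transplantable tumor model; survival measured in treated vs vehicle control mice. Value = treated/control.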

[1] = dose: 100.0 mg/kg/injection, schedule: Q04DX003 (ip), vehicle: saline with Tween-80
[2] = dose: 200.0 mg/kg/injection, schedule: Q04DX003 (ip), vehicle: saline with Tween-80
[3] = dose: 400.0 mg/kg/injection, schedule: Q04DX003 (ip), vehicle: saline with Tween-80
[4] = dose: 100.0 mg/kg/injection, schedule: Q01DX001 (ip), vehicle: Klucel (hydroxypropylcellulose) (HPC)
[5] = dose: 200.0 mg/kg/injection, schedule: Q01DX001 (ip), vehicle: Klucel (hydroxypropylcellulose) (HPC)
[6] = dose: 400.0 mg/kg/injection, schedule: Q01DX001 (ip), vehicle: Klucel (hydroxypropylcellulose) (HPC)
[7] = dose: 25.0 mg/kg/injection, schedule: Q01DX009 (ip), vehicle: saline
[8] = dose: 100.0 mg/kg/injection, schedule: Q01DX009 (ip), vehicle: saline with Tween-80
[9] = dose: 200.0 mg/kg/injection, schedule: Q01DX009 (ip), vehicle: saline with Tween-80
[10] = dose: 100.0 mg/kg/injection, schedule: Q01DX009 (ip), vehicle: Klucel (hydroxypropylcellulose) (HPC)
[11] = dose: 200.0 mg/kg/injection, schedule: Q01DX009 (ip), vehicle: Klucel (hydroxypropylcellulose) (HPC)

Measured: T/C

O=C1c2ccccc2C(=O)N1CNc1cccc(NCN2C(=O)c3ccccc3C2=O)c1
inactive: [1] 91 % of control | [2] 97 % of control | [3] 102 % of control

CC(C)=C(c1ccc(Br)cc1)c1ccc(Br)cc1
inactive: dose: 100.0 mg/kg/injection, schedule: Q01DX009 (ip), vehicle: acetone 93 % of control | [1] 105 % of control | [2] 97 % of control | [3] 94 % of control

CCOC(=O)CC(C)NC1CCCCC1 (stereo unspecified)
inactive: dose: 100.0 mg/kg/injection, schedule: Q01DX Z (ip), vehicle: methylcellulose (MC) 92 % of control | dose: 200.0 mg/kg/injection, schedule: Q01DX Z (ip), vehicle: methylcellulose (MC) 92 % of control

CC1NC(=S)NC(=O)C1CCSC(=N)N (stereo unspecified)
inactive: dose: 100.0 mg/kg/injection, schedule: Q01DX001 (ip), vehicle: saline 104 % of control | dose: 200.0 mg/kg/injection, schedule: Q01DX001 (ip), vehicle: saline 98 % of control

CC(C)CCNC(=O)CS(=O)(=O)c1ccc(N)cc1
inactive: [1] 98 % of control | [2] 98 % of control | [3] 96 % of control

Nc1nc(N)c(N=Nc2ccc(S(=O)(=O)Nc3ncccn3)cc2)cc1N=Nc1ccccc1
inactive: dose: 100.0 mg/kg/injection, schedule: Q01DX001 (ip), vehicle: carboxymethylcellulose (CMC) 101 % of control | dose: 200.0 mg/kg/injection, schedule: Q01DX001 (ip), vehicle: carboxymethylcellulose (CMC) 95 % of control | dose: 400.0 mg/kg/injection, schedule: Q01DX001 (ip), vehicle: carboxymethylcellulose (CMC) 103 % of control

Clc1ccc(/C=N\Nc2ccccc2)c(Cl)c1
inactive: [4] 103 % of control | [5] 101 % of control | [6] 109 % of control

CCCCNc1ccc(C(=O)OCCNC2CCCCC2)cc1
inactive: dose: 75.0 mg/kg/injection, schedule: Q01DX001 (ip), vehicle: saline 100 % of control | dose: 150.0 mg/kg/injection, schedule: Q01DX001 (ip), vehicle: saline 96 % of control

O=C(Nc1ccc(Cl)cc1C(F)(F)F)Sc1ccc(Cl)cc1
inactive: dose: 100.0 mg/kg/injection, schedule: Q01DX001 (ip), vehicle: gum acacia 103 % of control and 104 % of control | dose: 100.0 mg/kg/injection, schedule: Q01DX009 (ip), vehicle: gum acacia 92 % of control | dose: 100.0 mg/kg/injection, schedule: Q04DX002 (ip), vehicle: gum acacia 99 % of control and 88 % of control | dose: 100.0 mg/kg/injection, schedule: Q04DX003 (ip), vehicle: gum acacia 92 % of control and 87 % of control | dose: 200.0 mg/kg/injection, schedule: Q01DX001 (ip), vehicle: gum acacia 98 % of control and 103 % of control | dose: 200.0 mg/kg/injection, schedule: Q01DX009 (ip), vehicle: gum acacia 90 % of control | dose: 200.0 mg/kg/injection, schedule: Q04DX002 (ip), vehicle: gum acacia 101 % of control and 102 % of control | dose: 200.0 mg/kg/injection, schedule: Q04DX003 (ip), vehicle: gum acacia 92 % of control and 109 % of control | dose: 400.0 mg/kg/injection, schedule: Q01DX001 (ip), vehicle: gum acacia 100 % of control and 103 % of control | dose: 400.0 mg/kg/injection, schedule: Q04DX002 (ip), vehicle: gum acacia 97 % of control and 89 % of control | dose: 400.0 mg/kg/injection, schedule: Q04DX003 (ip), vehicle: gum acacia 97 % of control and 90 % of control

COc1cc(N2C(N)=NC(N)=NC2(C)C)cc(OC)c1OC
inactive: dose: 6.25 mg/kg/injection, schedule: Q01DX009 (ip), vehicle: saline 98 % of control | dose: 12.5 mg/kg/injection, schedule: Q01DX009 (ip), vehicle: saline 105 % of control | [7] 107 % of control

CN(C)CSc1nc2ccccc2s1
inactive: dose: 50.0 mg/kg/injection, schedule: Q01DX009 (ip), vehicle: saline with Tween-80 93 % of control | [8] 89 % of control | [9] 93 % of control

COc1ccc(C2(O)c3ccccc3-c3ccccc32)cc1
inactive: [7] 98 % of control | dose: 50.0 mg/kg/injection, schedule: Q01DX009 (ip), vehicle: saline 93 % of control | dose: 100.0 mg/kg/injection, schedule: Q01DX009 (ip), vehicle: saline 98 % of control | dose: 200.0 mg/kg/injection, schedule: Q01DX009 (ip), vehicle: saline 101 % of control | dose: 300.0 mg/kg/injection, schedule: Q01DX009 (ip), vehicle: saline 96 % of control | dose: 400.0 mg/kg/injection, schedule: Q01DX009 (ip), vehicle: saline 95 % of control

O=C(O)C(C(=O)O)C1Cc2cccc3cccc1c23 (stereo unspecified)
inactive: dose: 25.0 mg/kg/injection, schedule: Q04DX003 (ip), vehicle: saline with Tween-80 96 % of control | dose: 50.0 mg/kg/injection, schedule: Q04DX003 (ip), vehicle: saline with Tween-80 98 % of control | [1] 100 % of control

NC(C(=O)O)c1ccccc1Cl (stereo unspecified)
inactive: dose: 50.0 mg/kg/injection, schedule: Q01DX009 (ip), vehicle: Klucel (hydroxypropylcellulose) (HPC) 95 % of control | [4] 92 % of control | [10] 101 % of control | [5] 102 % of control | [11] 107 % of control | [6] 91 % of control

CN=C(NC)c1cccc(NC(=O)/C=C\c2ccc(/C=C/C(=O)Nc3cccc(C(=NC)NC)c3)cc2)c1
inactive: dose: 0.56 mg/kg/injection, schedule: Q01DX Z (ip), vehicle: carboxymethylcellulose (CMC) 103 % of control | dose: 1.12 mg/kg/injection, schedule: Q01DX Z (ip), vehicle: carboxymethylcellulose (CMC) 103 % of control | dose: 2.25 mg/kg/injection, schedule: Q01DX Z (ip), vehicle: carboxymethylcellulose (CMC) 120 % of control

CCCCCP(=S)(CCCC)CCCCC
inactive: dose: 100.0 mg/kg/injection, schedule: Q04DX002 (ip), vehicle: Klucel (hydroxypropylcellulose) (HPC) 98 % of control | dose: 200.0 mg/kg/injection, schedule: Q04DX002 (ip), vehicle: Klucel (hydroxypropylcellulose) (HPC) 94 % of control | dose: 400.0 mg/kg/injection, schedule: Q04DX002 (ip), vehicle: Klucel (hydroxypropylcellulose) (HPC) 94 % of control

CCCCCCCCOC(=O)c1[nH]cnc1/N=N/N(C)CCCC
inactive: dose: 100.0 mg/kg/injection, schedule: Q01DX001 (ip), vehicle: other 107 % of control | dose: 200.0 mg/kg/injection, schedule: Q01DX001 (ip), vehicle: other 107 % of control | dose: 400.0 mg/kg/injection, schedule: Q01DX001 (ip), vehicle: other 102 % of control

Oc1c(Cl)cc(Cl)cc1C=NCC1CCC(CN=Cc2cc(Cl)cc(Cl)c2O)CC1 (stereo unspecified)
inactive: [8] 92 % of control | [9] 92 % of control | dose: 400.0 mg/kg/injection, schedule: Q01DX009 (ip), vehicle: saline with Tween-80 94 % of control

CC12CCC(CC1)C2C(=O)O (stereo unspecified)
inactive: dose: 75.0 mg/kg/injection, schedule: Q01DX009 (ip), vehicle: saline with Tween-80 106 % of control | [1] 102 % of control | dose: 150.0 mg/kg/injection, schedule: Q01DX009 (ip), vehicle: saline with Tween-80 93 % of control | [2] 98 % of control | dose: 300.0 mg/kg/injection, schedule: Q01DX009 (ip), vehicle: saline with Tween-80 98 % of control | [3] 102 % of control

Nc1cc2ccccc2c(Br)n1
inactive: dose: 100.0 mg/kg/injection, schedule: Q01DX001 (ip), vehicle: saline with Tween-80 110 % of control | dose: 100.0 mg/kg/injection, schedule: Q01DX009 (ip), vehicle: saline sonified 98 % of control | dose: 200.0 mg/kg/injection, schedule: Q01DX001 (ip), vehicle: saline with Tween-80 105 % of control | dose: 200.0 mg/kg/injection, schedule: Q01DX009 (ip), vehicle: saline sonified 93 % of control | dose: 400.0 mg/kg/injection, schedule: Q01DX001 (ip), vehicle: saline with Tween-80 100 % of control | dose: 400.0 mg/kg/injection, schedule: Q01DX009 (ip), vehicle: saline sonified 98 % of control

Cc1cccc(NC(=O)Nc2cccc(Cl)c2)c1C
inactive: [10] 91 % of control | dose: 100.0 mg/kg/injection, schedule: Q04DX003 (ip), vehicle: Klucel (hydroxypropylcellulose) (HPC) 90 % of control | [11] 100 % of control | dose: 200.0 mg/kg/injection, schedule: Q04DX003 (ip), vehicle: Klucel (hydroxypropylcellulose) (HPC) 90 % of control | dose: 400.0 mg/kg/injection, schedule: Q01DX009 (ip), vehicle: Klucel (hydroxypropylcellulose) (HPC) 93 % of control | dose: 400.0 mg/kg/injection, schedule: Q04DX003 (ip), vehicle: Klucel (hydroxypropylcellulose) (HPC) 89 % of control

C[C@H](OC(=O)CCl)[C@@H](C)OC(=O)CCl
inactive: dose: 50.0 mg/kg/injection, schedule: Q01DX001 (sc), vehicle: carboxymethylcellulose (CMC) 109 % of control | dose: 100.0 mg/kg/injection, schedule: Q01DX001 (sc), vehicle: carboxymethylcellulose (CMC) 88 % of control
